# Reference: patent publication US6395541B1, “Methods for the identification of compounds capable of inhibiting HIV-1 viral replication employing murine cell lines expressing human topoisomerase I” (The Rockefeller University, priority 1996, dated 2002)
# Key:
# [1] = system: HIV-1; conditions: AIDS patients; cited from earlier work
# [2] = system: HIV-1; conditions: cited from earlier work
# [3] = molecular target: T1, topo I (Homo sapiens, UniProt P11387); experiment: Reverse transcriptase assay, linear cDNA synthesis from 5'/3' HIV-1 RNA template in presence of topo I; assay type: biochemical; conditions: HIV-1 RT with topo I 0.16 unit; CPT 400, 40, 4 and 0 μM; concentration dependent
# T1 sequence (P11387 1-765): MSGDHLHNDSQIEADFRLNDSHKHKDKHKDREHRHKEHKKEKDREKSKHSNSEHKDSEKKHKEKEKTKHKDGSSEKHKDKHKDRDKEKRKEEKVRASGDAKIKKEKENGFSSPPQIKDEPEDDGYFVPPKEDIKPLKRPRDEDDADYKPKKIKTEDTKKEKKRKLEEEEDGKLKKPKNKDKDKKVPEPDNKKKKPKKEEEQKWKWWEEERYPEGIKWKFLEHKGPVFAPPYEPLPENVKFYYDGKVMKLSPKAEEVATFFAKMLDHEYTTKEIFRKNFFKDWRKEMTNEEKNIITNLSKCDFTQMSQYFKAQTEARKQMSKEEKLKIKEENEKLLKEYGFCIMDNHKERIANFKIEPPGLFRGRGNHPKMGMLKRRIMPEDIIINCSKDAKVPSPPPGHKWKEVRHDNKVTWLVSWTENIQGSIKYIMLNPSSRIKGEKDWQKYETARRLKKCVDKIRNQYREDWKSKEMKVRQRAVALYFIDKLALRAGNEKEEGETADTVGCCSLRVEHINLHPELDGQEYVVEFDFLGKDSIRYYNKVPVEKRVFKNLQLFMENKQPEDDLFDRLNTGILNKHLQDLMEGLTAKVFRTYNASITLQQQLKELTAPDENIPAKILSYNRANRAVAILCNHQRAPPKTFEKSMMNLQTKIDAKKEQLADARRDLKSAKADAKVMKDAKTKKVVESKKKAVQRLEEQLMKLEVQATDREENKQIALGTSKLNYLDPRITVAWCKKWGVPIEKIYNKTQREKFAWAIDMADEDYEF
# Description: Influence of cellular topo I on HIV-1 RT activity. […] An end-labeled primer (*) was employed to initiate cDNA synthesis and would be expected to result in a product of 1481 nucleotides (nt). […] Phosphorescence image analysis of cDNA products following agarose gel electrophoresis. The presence or absence of topo I is indicated by + and −, respectively. Similarly the presence or absence of CPT is indicated by + and −.
# To analyze the influence of topo I on linear cDNA synthesis, the template containing both the 5′ and 3′ ends of HIV-1 RNA was used. cDNA synthesis expected to result in a product of 1481 nucleotides was initiated using a nef gene primer end-labeled with [θ-^32P]ATP (5′-[sequence]-3′; nucleotides 9002-9027). Reaction mixtures obtained 300 ng of RNA template in 50 μl of 50 Mm TrisHCL (pH 8.0) containing 150 Mm KCl, 5 Mm MgCl^2, 5 Mm dithiothreitol, 0.5 Mm EGTA, 0.4 unit of RNasin (Promega), 0.1 unit of HIV-1 RT (Seikagaku, Kogyo, Tokyo), 100 ng of primer, 250 μM dNTPs, bovine serum albumin at 0.1 mg/ml, GST-P15 at 0.8 μg/ml 10 μl of glutathione beads (50% vol/vol; Pharmacia), and topo I at final concentrations of 0.16, 0.032 and 0.0064 unit. Samples were incubated at 37° C. for 25 min. […] Gels were dried onto nylon membranes and analyzed with a Fuji BAS2000 phosphorescence imager.
# [4] = molecular target: T1, topo I; experiment: Reverse transcriptase assay, ssDNA synthesis and strand transfer in presence of topo I; assay type: biochemical; conditions: topo I 0.16 unit per 50 μl; CPT 400, 40 and 4 μM; concentration-dependent
# Description: Analysis of ssDNA synthesis and strand transfer. […] Schematic representation of two RNA templates employed. […] The 3′RNA represents the 3′end of the HIV-1 RNA and contains the R region and the poly(A) tail. ssDNA synthesis was initiated by an end labeled primer (*) corresponding to the primer binding site (PBS) in the 5′RNA. After strand transfer to the 3′RNA, this would be expected to result in a cDNA product of 867 nucleotides. […] Phosphorescence image analysis of the cDNA product after agarose gel electrophoresis. The presence and absence of 5′RNA and 3′RNA templates are indicated by + and −, respectively. The effects of CPT at concentrations of 400, 40 and 4 μM are indicated by +. Topo I was used at the final concentration of 0.16 unit per 50 μl in all experiments.
# Reaction mixtures obtained 300 ng of RNA template in 50 μl of 50 Mm TrisHCL (pH 8.0) containing 150 Mm KCl, 5 Mm MgCl^2, 5 Mm dithiothreitol, 0.5 Mm EGTA, 0.4 unit of RNasin (Promega), 0.1 unit of HIV-1 RT (Seikagaku, Kogyo, Tokyo), 100 ng of primer, 250 μM dNTPs, bovine serum albumin at 0.1 mg/ml, GST-P15 at 0.8 μg/ml 10 μl of glutathione beads (50% vol/vol; Pharmacia), and topo I at final concentrations of 0.16, 0.032 and 0.0064 unit. Samples were incubated at 37° C. for 25 min. […] Gels were dried onto nylon membranes and analyzed with a Fuji BAS2000 phosphorescence imager. […] Reaction products were analyzed as above.
# [5] = system: HIV-1 IIIB strain; experiment: Southern hybridization of DNA from HIV-1 infected MT2 cells with drug treatment; assay type: cell-based; conditions: HIV-1 IIIB 0.1 m.o.i., 72 hrs, drugs 0.01-10 μg/ml
# Description: FIG. 5. Southern hybridization of DNA from HIV-1 infected cells with drug treatment. […] cells, MT2, infected with the HIV-1 IIIB strain were treated with AZT, CPT or TAN at concentrations (from right to left) AZT 0.01, 0.1, 1.0, 10 μg/ml, CPT 0.01, 0.1, 1.0 μg/ml, TAN 0.01, 0.1, 1.0 μg/ml respectively.
# MT2 cells were incubated for 2 hours with HIV-1 IIIB strain (Ratner et al., 1985 Nature 313: 277-284) at 0.1 m.o.i. with drugs. Concentrations ranged from no drugs 0,0, AZT 0.01, 0.1, 1, 10 μg/mi, CPT 0.01, 0. 1, 1 μg/ml TAN 0.01, 0. 1, 1 μg/ml, CPT 0.1, 1, 10 μg/ml, TAN 0.1, 1, 10 μg/mi respectively (FIG. 5). After washing with PBS 3 times, cells were incubated again for 72 hrs with or without concentration of drugs as indicated, then lysed with 1% SDS, 10 Mm Tris HCl (pH 8.0), 5 Mm EDTA, 1M NaCl(Hirt's method. Following overnight incubation at 4 C., large molecule of DNA were precipitated by centrifugation. Supernatants were treated with 100 μg/ml of protease K at 56° C. for 2 hrs and after treated with phenol-chloroform, small molecules of DNA were precipitated and subjected to southern hybridization. Transferred nylon membrane (Schleicher & Schuell) were probed with (α-^32P) dCTP-random-primed-labeled primer.
SMILES,CD4 lymphocyte counts [1],plasma HIV-1 levels [1],antiviral activity in vitro [2],cDNA synthesis (1481 nucleotide product) [3],cDNA product of 867 nucleotides (ssDNA synthesis and strand transfer) [4],"HIV-replication in HIV-infected cells, Southern blot analysis [5]"
CC(C)c1nc(CN(C)C(=O)N[C@H](C(=O)N[C@@H](Cc2ccccc2)C[C@H](O)[C@H](Cc2ccccc2)NC(=O)OCc2cncs2)C(C)C)cs1 [ABT-538],rise substantially,decrease exponentially,potent antiviral activity,,,
"CC[C@@]1(O)C(=O)OCc2c1cc1n(c2=O)Cc2cc3ccccc3nc2-1 [CPT, camptothecin]",,,,inhibited,inhibited,reduced HIV-replication
